Source: patent publication US5484778A, “Phthalocyanine photosensitizers for photodynamic therapy and methods for their use” (priority 1993, dated 1996)

Tests used:
RIF-1 tumors [1] = assay: PDT of RIF-1 implanted tumors with PcIV and multiple exposures to light (Table 8); format: in vivo, C3H/HeN mice; conditions: for % of Mice Surviving: 1 mg/kg
Description: To overcome the regrowth, RIF-1 tumors were implanted in C3H/HeN mice, and the mice were treated with PcIV followed by multiple exposures to light. For multiple exposures to light to be successful, the tumor tissue must retain sufficient levels of the photosensitizer over the exposure period.
Thereafter, the tumors were irradiated with an argon ion pumped dye laser tuned at 675 nm for the total light dose of 135 J/cm^2 (75 mW/cm^2).

L5178Y cells = assay: Induction of apoptosis (DNA fragmentation) in L5178Y-R cells (Table 6); format: cell-based, mouse; conditions: 0.4 μM
How it was run: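 Exponentially growing mouse lymphoma L5178Y-R cells loaded 18 hours with phthalocyanine at various concentrations, then irradiated with >600 nm red light (up to 30 kJ/m^2, ~74 W/m^2). DNA isolated 2 hours post-PDT, run on 1.5% agarose; value is minimum PDT dose (concentration × fluence) giving visible DNA ladder.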

V79 cells = assay: Uptake of additional phthalocyanines into V79 cells (Table 2); conditions: for Uptake into V79 cells: 18 hours
Description: V79 cells Chinese hamster lung fibroblasts were cultured using the cell culture methods described above. […] When the filters were dry, the phthalocyanines were extracted into ethanol and the absorption determined at the peak wavelength, usually 668 nm.

[2] = test system: human squamous cell carcinoma; assay: PDT of human squamous cell carcinoma in athymic nude mice (Table 9); format: in vivo, Harlen-Sprague Dawley athymic nude mice; conditions: 1.0 mg/kg; for % Tumor Response: 24 hours post illumination; for % Tumor Cure: 7 days post treatment
Description: A single cell suspension of human squamous cell carcinoma was injected subcutaneously into the back of Harlen-Sprague Dawley athymic nude mice. […]

RIF-1 tumors [3] = assay: PDT of RIF-1 implanted tumors (Table 7); format: in vivo, C3H/HeN mice; conditions: for effect on tumor volume / growth (in words): 1 mg/kg
How it was run: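 C3H/HeN mice each carried one RIF-1 fibrosarcoma on the back and received 1 mg/kg phthalocyanine as a corn-oil suspension. Volume was measured daily by calipers from a 50±10 mm^3 start and calculated with the hemiellipsoid model.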

## CN(C)CCC[Si](C)(C)O[Si]1(O)n2c3c4ccccc4c2N=C2N=C(N=c4c5ccccc5c(n41)=NC1=NC(=N3)c3ccccc31)c1ccccc12 (stereo not drawn) [Compound IV, HOSiPcOsi(CH3)2)(CH2)3 N(CH3)2]
RIF-1 tumors [1]; 360 h
  % of Mice Surviving: 100%
RIF-1 tumors [1]; 2880 h
  % of Mice Surviving: 0%
RIF-1 tumors [1]; DPPC liposomes, 30 days, exposure day 2
  % of Mice Surviving: 100%
RIF-1 tumors [1]; corn oil, 15 days, exposure day 2
  % of Mice Surviving: 100%
RIF-1 tumors [1]; corn oil, 15 days, exposure days 2-6
  % of Mice Surviving: 100%
RIF-1 tumors [1]; DPPC liposomes, 30 days after PDT, irradiated only one or two times
  tumor regrowth: Tumor regrowth occurred 30 days after photodynamic therapy
RIF-1 tumors [1]; DPPC liposomes, 120 days after PDT, three to five exposures
  tumor regrowth: No tumor regrowth occurred even at 120 days
RIF-1 tumors [1]; DPPC liposomes, 300 days after light treatment
  tumor regrowth: no evidence of tumor regrowth
RIF-1 tumors [1]; DPPC liposomes, irradiated three, four or five times at 24 hour interval
  tumor cure: complete tumor cure was evident
RIF-1 tumors [1]; corn oil, 15 days after PDT, all multiple exposure protocols
  tumor regrowth: regrowth of tumors was evident 15 days after photodynamic therapy in all the multiple exposure protocols
L5178Y cells
  Minimum Demonstrated Condition to induce apoptosis: C × F: 1.2 μm × kJ/m^2
  Minimum Demonstrated Condition to induce apoptosis: Fluence: 3.0 kJ/m^2
V79 cells
  uptake by V79 cells (in words): taken up particulary well
V79 cells; 1 μM
  Uptake into V79 cells: 0.7 ± 0.2 n Moles/10^6 cells
V79 cells; 2 μM
  Uptake into V79 cells: 3.1 ± 0.3 n Moles/10^6 cells
V79 cells; 4 μM
  Uptake into V79 cells: 4.6 ± 2.9 n Moles/10^6 cells
V79 cells; average of all data
  Uptake into V79 cells, composite value: 1.1 n Moles/10^6 cells/μM
V79 cells; repeated in Table 3
  Uptake (from Table 2): 1.1 n Moles/10^6 cells/μM
[2]; 35 J/cm^2 675 nm, 15 min
  % Tumor Response: 40%
  % Tumor Cure: 0%
[2]; 75 J/cm^2 675 nm, 15 min
  % Tumor Response: 80%
  % Tumor Cure: 60%
[2]; 135 J/cm^2 675 nm, 15 min
  % Tumor Response: 100%
  % Tumor Cure: 100%
[2]; no light
  % Tumor Response: 0%
  % Tumor Cure: 0%
RIF-1 tumors [3]; 1 mg/kg in corn oil, 675 nm, 135 J/cm^2
  Doubling Time of Initial Tumor Volume after PDT: 16 days
RIF-1 tumors [3]; listed as Pc IV
  effect on tumor volume / growth (in words): significantly impair the growth of the tumors
RIF-1 tumors [3]; listed as PcIV
  effect on tumor volume / growth (in words): particularly effective in reducing tumor volume
RIF-1 tumors [3]; after PDT, from the tumor margins
  tumor regrowth: regrowth of tumors from the tumor margins occurred
